# According to patent US12421276B2 (priority 2016, dated 2025):
# What was measured:
# [1] = Plasma stability study, human plasma; assay type: in vitro ADME; settings: Human plasma, 1 μM, 37° C.
# In short: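 Compounds (1 μM, from 0.3 mM DMSO stock) incubated at 37° C in K2 EDTA plasma, quenched at time points with acetonitrile/methanol/formic acid plus internal standard, and analysed by LC/MS/MS. Disappearance measured relative to 0-min control; t½ derived from elimination rate constant of semi-log % remaining versus time regression.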
# [2] = Metabolic stability in simulated gastric fluid (SGF), pH 1.2, with or without pepsin; assay type: in vitro ADME; settings: 5 μM, 37° C.
# In short: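 Compound at 5 μM incubated at 37 °C in SGF (34.2 mM NaCl, pH 1.2) without or with 0.32% pepsin; acetonitrile/formic acid quench at time points, LC/MS/MS. Disappearance relative to 0-min; t½ from elimination rate constant of semi-log % remaining vs time.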
SMILES,Plasma Stability Half-Life [1],Plasma Stability (% Parent Remaining) 0 min [1],Plasma Stability (% Parent Remaining) 60 min [1],Plasma Stability (% Parent Remaining) 120 min [1],Plasma Stability (% Parent Remaining) 240 min [1],SGF Stability (pH 1.2) Half-Life (min) ([2]; +Pepsin (0.32%)),SGF Stability (pH 1.2) 0 min ([2]; +Pepsin (0.32%)),SGF Stability (pH 1.2) 60 min ([2]; +Pepsin (0.32%)),SGF Stability (pH 1.2) 120 min ([2]; +Pepsin (0.32%)),SGF Stability (pH 1.2) 240 min ([2]; +Pepsin (0.32%)),SGF Stability (pH 1.2) Half-Life (min) ([2]; −Pepsin),SGF Stability (pH 1.2) 0 min ([2]; −Pepsin),SGF Stability (pH 1.2) 60 min ([2]; −Pepsin),SGF Stability (pH 1.2) 120 min ([2]; −Pepsin),SGF Stability (pH 1.2) 240 min ([2]; −Pepsin)
CCCCCC(=O)NC(Cc1ccc(OC(=O)N2CCN(C)CC2)cc1)C(=O)NC(C(=O)NCCCCCC(N)=O)C(C)CC (stereo not shown) [Compound A20],49.295 h,100%,83%,87%,90%,84.5 min,100%,57%,37%,26%,116.5 min,100%,70%,57%,60%
CCCCCC(=O)NC(Cc1ccc(OC(=O)NCCN(C)C)cc1)C(=O)NC(C(=O)NCCCCCC(N)=O)C(C)CC (stereo not shown) [Compound A21],1.22 h,100%,59%,33%,11%,265.1 min,100%,87%,74%,54%,,,,,
